The text below walks through data of US9938281B2 (Merck Sharp & Dohme Corp., priority 2012, dated 2018).

The target in one experiment is T1, PI3K-delta (Homo sapiens, UniProt O00329).
T1 construct: purchased Upstate; Millipore 14-604
As to the kind of experiment: HTRF PI3K biochemical assay, delta isoform. To be noted: form screened (neutral or TFA salt) given, read-out: PI3Kdelta IC50. Background: Time-resolved FRET reads energy transfer from a long-lived donor to a nearby acceptor.

Another experiment has as its target T2, PI3K-alpha (Homo sapiens, UniProt P42336).
T2 construct: purchased Upstate; Millipore 14-602
As to the kind of experiment: HTRF PI3K biochemical assay, alpha isoform. To be noted: ratio PI3K-alpha IC50 value / PI3K-delta IC50 value.

T2 sequence (P42336 whole entry): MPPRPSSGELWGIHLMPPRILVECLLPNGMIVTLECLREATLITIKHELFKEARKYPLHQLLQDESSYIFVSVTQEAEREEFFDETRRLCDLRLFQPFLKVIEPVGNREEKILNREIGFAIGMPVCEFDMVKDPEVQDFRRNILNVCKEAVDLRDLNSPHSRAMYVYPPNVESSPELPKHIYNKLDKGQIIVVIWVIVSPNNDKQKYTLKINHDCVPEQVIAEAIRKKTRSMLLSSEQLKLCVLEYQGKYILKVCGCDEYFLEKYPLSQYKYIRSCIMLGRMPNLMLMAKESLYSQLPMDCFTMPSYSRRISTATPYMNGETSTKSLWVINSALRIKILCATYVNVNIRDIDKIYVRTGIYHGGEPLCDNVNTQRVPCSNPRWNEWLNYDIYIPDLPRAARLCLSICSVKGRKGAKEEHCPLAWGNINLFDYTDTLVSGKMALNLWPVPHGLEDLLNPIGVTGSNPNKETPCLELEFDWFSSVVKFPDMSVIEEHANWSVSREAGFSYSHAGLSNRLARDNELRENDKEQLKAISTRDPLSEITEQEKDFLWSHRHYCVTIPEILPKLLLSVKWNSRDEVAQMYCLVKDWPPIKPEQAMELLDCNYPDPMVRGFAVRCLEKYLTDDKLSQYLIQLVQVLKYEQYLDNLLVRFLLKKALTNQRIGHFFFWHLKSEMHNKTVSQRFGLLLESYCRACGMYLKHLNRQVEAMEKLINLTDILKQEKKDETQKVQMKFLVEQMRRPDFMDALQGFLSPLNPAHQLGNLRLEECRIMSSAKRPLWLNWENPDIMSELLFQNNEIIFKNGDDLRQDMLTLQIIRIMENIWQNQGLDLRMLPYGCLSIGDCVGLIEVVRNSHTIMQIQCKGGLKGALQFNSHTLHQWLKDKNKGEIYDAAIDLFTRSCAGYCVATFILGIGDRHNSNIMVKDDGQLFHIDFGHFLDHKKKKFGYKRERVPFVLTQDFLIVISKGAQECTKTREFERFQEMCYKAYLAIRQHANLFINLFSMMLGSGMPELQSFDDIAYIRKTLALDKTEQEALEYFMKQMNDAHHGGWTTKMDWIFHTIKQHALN
T2 sequence (P27986 whole entry partner): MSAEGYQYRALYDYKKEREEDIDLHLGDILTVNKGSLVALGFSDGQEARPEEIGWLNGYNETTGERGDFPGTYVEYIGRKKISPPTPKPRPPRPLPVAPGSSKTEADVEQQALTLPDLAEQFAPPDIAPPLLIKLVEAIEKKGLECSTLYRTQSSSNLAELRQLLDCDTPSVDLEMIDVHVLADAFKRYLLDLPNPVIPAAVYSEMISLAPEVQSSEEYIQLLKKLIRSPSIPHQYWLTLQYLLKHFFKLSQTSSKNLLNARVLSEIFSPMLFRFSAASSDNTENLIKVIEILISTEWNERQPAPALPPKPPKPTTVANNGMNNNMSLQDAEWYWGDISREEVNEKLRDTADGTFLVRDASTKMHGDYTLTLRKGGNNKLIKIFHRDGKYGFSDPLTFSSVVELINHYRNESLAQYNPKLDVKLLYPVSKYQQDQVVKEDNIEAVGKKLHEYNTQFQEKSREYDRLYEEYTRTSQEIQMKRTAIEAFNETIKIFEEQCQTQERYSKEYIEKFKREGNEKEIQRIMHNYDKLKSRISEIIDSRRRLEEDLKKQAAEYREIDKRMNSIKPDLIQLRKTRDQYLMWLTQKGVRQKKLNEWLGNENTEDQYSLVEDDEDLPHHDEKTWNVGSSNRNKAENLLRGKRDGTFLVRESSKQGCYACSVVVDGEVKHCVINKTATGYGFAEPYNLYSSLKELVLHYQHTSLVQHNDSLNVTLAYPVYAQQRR
T1 sequence (O00329 whole entry): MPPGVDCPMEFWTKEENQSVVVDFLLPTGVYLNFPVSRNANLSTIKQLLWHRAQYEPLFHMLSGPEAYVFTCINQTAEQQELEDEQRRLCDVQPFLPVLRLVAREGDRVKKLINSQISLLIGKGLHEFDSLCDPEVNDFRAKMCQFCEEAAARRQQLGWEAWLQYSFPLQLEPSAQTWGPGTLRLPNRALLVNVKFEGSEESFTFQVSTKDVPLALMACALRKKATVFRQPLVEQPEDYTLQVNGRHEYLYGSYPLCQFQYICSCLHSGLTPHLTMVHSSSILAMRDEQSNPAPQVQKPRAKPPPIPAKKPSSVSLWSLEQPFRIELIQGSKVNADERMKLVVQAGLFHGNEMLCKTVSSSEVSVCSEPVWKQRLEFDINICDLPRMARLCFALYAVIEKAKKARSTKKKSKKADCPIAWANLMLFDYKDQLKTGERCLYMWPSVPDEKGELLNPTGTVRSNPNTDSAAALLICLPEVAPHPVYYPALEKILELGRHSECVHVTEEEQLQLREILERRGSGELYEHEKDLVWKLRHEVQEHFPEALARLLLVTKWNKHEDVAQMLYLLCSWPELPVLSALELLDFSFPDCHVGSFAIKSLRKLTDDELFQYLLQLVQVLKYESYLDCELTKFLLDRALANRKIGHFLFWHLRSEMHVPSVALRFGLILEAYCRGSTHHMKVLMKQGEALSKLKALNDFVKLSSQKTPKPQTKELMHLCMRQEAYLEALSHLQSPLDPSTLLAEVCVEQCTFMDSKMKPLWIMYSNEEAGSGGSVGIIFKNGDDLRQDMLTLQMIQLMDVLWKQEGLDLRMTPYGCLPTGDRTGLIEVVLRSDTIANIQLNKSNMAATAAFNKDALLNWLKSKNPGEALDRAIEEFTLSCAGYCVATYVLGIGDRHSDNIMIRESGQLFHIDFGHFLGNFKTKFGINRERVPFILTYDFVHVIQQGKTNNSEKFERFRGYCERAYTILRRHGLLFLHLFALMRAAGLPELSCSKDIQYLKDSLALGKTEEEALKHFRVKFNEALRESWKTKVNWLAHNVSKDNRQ
T1 sequence (P27986 whole entry partner): as the sequence (P27986 whole entry partner) above
Excerpt for PI3K-alpha: The PI3-Kinase biochemical assays were developed to measure the intrinsic potency and compound dependent inhibition of the alpha, beta, delta, and gamma PI3K isoform enzymes. This assay was developed and further optimized from a kit produced by Upstate (Millipore catalog #33-047) and has been configured for HTS and SAR screening. Briefly, this procedure exploits the exquisite specificity and high affinity binding of enzyme reaction substrate phosphatidyl(3,4,5)triphosphate (PIP3) to the GRP1 pleckstrin homology (PH) domain to generate the signal. In the absence of PIP3, an HTRF (Homogeneous Time-Resolved Fluorescence energy transfer) complex is formed consisting of europium (Eu)-labeled anti-GST, GSTtagged GRP1-PH domain, biotin-PIP3 and streptavidin conjugated APC. The native PIP3 produced by PI3-Kinase activity disrupts in a competitive manner the biotin-PIP3 from the PH domain, resulting in the loss of energy transfer (HTRF complex) and a decrease in the signal. The format of this assay is the same for all 4 isoforms of PI3K; the differences lie in the concentration of enzyme used to achieve robust assay window. The alpha, beta, and delta assays are run at 0.5, 1, and 0.3 nM enzymes and the gamma assay is run at 5 nM enzyme. The ATP concentration is 100 uM in the alpha, beta, and delta assays and 50 uM ATP in the gamma assay. All reactions are run at 5 uM PIP2.
Compounds are serially diluted (3-fold in 100% DMSO) across a 384-well polypropylene source plated from column 3 to column 12 and column 13 to column 22, to yield 10 concentration dose response for each test compound. Columns 1, 2, 23 and 24 contain either only DMSO or pharmacological known control inhibitor.
The PI3-Kinase biochemical assay was optimized using the HTRF kit provided by Upstate (Millipore). The assay kit contains six reagents: 1) 4× Reaction Buffer; 2) native PIP2 (substrate); 3) Stop (EDTA); 4) Detection Mix A (Streptavidin-APC); 5) Detection Mix B (Eu-labeled Anti-GST plus GST-tagged PH-domain); 6) Detection Mix C.
PI3Kinase Reaction Buffer is prepared by dilution the stock 1:4 with de-ionized water. […] Enzyme addition and compound pre-incubation are initiated by the addition of 1.25 ul of PI3K (at twice its final concentration) in the 1× reaction buffer to all wells using a BioRaptor. Plates are incubated at room temperature for 15 minutes. Reactions are initiated by addition of 1.25 ul of 2× substrate solution (PIP2 and ATP in 1× reaction buffer) using BioRaptor. Plates are incubated in humidified chamber at room temperature for one hour. Reactions are quenched by addition of 0.625 uL of stop solution to all wells using the BioRaptor. The quenched reactions are then processed to detect product formation by adding 0.625 uL of Detection Solution to all wells using the BioRaptor (Detection mix C, Detection Mix A, and Detection Mix B combined together in an 18:1:1 ratio prepared 2 hours prior to use).
The loss of the HTRF signal is due to the displacement of biotinylated-PIP3 from the PH domain by the PI3K-dependent conversion of PIP2 to PIP3. This loss of signal is nonlinear with respect to both increasing product and time. This non-linear detection will impact accuracy of IC50 calculations; therefore, there is a need for a correction factor to obtain more accurate IC50 values. This correction is derived from a PIP3 standard curve run in a separate assay plate. All data were calculated using the ratio of acceptor (APC) to donor (Europium) fluorescence in each well of the assay plate. […] An IC50 was then calculated fitting the % inhibition data to the equation: % inhibition=min+(Max−min)/1+([inhibitor]/IC50)^n) where min is the % inhibition with inhibitor, max is the signal in DMSO control, and n is the Hill slope.
The determination of relative selectivity for a given compound is defined as the relative ratio of the (PI3K-alphalC50 value/PI3K-delta IC50 value).

Consider `CCC(=O)N1CC[C@H](Nc2ncnc3c2nc(-c2cnn(CC)c2C)n3CC)C1` [Compound 2-15, (S)-1-(3-((9-ethyl-8-(1-ethyl-5-methyl-1H-pyrazol-4-yl)-9H-purin-6-yl)amino)pyrrolidin-1-yl)propan-1-one], for which, at PI3K-delta, the IC50 is less than 1 nM. The “Selectivity versus PI3Kalpha” value on PI3K-alpha is recorded as greater than 10.

In the case of `CCn1c(-c2cnc(C)nc2)nc2c(N[C@H]3C[C@H](C(=O)NCCO)N(C(=O)C4CC4)C3)ncnc21` [Compound 15-7, (4S)-1-(cyclopropylcarbonyl)-4-{[9-ethyl-8-(2-methylpyrimidin-5-yl)-9H-purin-6-yl]amino}-N-(2-hydroxyethyl)-D-prolinamide], the IC50 at PI3K-delta was 5.8 nM. For the same compound, on PI3K-alpha, the “Selectivity versus PI3Kalpha” value is given as greater than 10.

With `CCn1c(C(=O)Nc2ccccn2)nc2c(N[C@H]3CCN(C(=O)C4CC4)C3)ncnc21` [Compound 6-20, 6-{[(3S)-1-(cyclopropylcarbonyl)pyrrolidin-3-yl]amino}-9-ethyl-N-pyridin-2-yl-9H-purine-8-carboxamide], the IC50 on PI3K-delta stood at 23 nM. Moreover, on PI3K-alpha, the “Selectivity versus PI3Kalpha” value is on record as greater than 10.

For the compound `CCn1c(-c2cnc(OC)c(C)c2)nc2c(N(C)[C@H]3CCN(C(=O)OC(C)(C)C)C3)ncnc21` [Compound 1-4, (S)-tert-butyl 3-((9-ethyl-8-(6-methoxy-5-methylpyridin-3-yl)-9H-purin-6-yl)(methyl)amino)pyrrolidine-1-carboxylate], the IC50 at PI3K-delta was determined as 1.7 nM. Moreover, the “Selectivity versus PI3Kalpha” value at PI3K-alpha was greater than 10.

As to `CCN(c1ncnc2c1nc(-c1cnc(C)nc1)n2CC)[C@H]1CCN(C(=O)C2CC2)C1` [Compound 3-28, N-[(3S)-1-(cyclopropylcarbonyl)pyrrolidin-3-yl]-N,9-diethyl-8-(2-methylpyrimidin-5-yl)-9H-purin-6-amine], on PI3K-delta, the IC50 was found to be 6.7 nM. Also, the “Selectivity versus PI3Kalpha” value on PI3K-alpha is greater than 10.

`CCn1ncc(-c2nc3c(N[C@H]4CCCN(C(=O)C5CCOCC5)C4)ncnc3n2C)c1C` [Compound 2-29, 8-(1-ethyl-5-methyl-1H-pyrazol-4-yl)-9-methyl-N-[(3S)-1-(tetrahydro-2H-pyran-4-ylcarbonyl)piperidin-3-yl]-9H-purin-6-amine]: the IC50 on PI3K-delta is 11 nM. In addition, the “Selectivity versus PI3Kalpha” value at PI3K-alpha was greater than 10.

With `CCn1c(-c2cnc(C)nc2)nc2c(N[C@H]3CC[C@H](C(=O)N(C)C4CC4)C3)ncnc21` [Compound 5-1, (1S,3S)-N-cyclopropyl-3-{[9-ethyl-8-(2-methylpyrimidin-5-yl)-9H-purin-6-yl]amino}-N-methylcyclopentanecarboxamide], at PI3K-delta, the IC50 turned out to be 13 nM. The “Selectivity versus PI3Kalpha” value at PI3K-alpha was greater than 10.
